Reference: patent US10327423B2, “Antimicrobial compounds and compositions, and uses thereof” (Akeso Biomedical, Inc., priority 2014, dated 2019)
Entries after “also recorded” stand apart in the source; their conditions may differ.

How the values were obtained:
[1] = system: kanamycin resistant strain of Enteropathogenic E. coli EPEC (E2348/69); experiment: Growth of kanamycin resistant EPEC with Fe-QA and kanamycin (patch on growth plate, growth curve); assay type: cell-based, Escherichia coli
Description: A kanamycin resistance gene was introduced into the genome of Enteropathogenic E. coli EPEC, (E2348/69), genotype; Wildtype EPEC-O-17:H6 allowing the kanamycin resistant strain of EPEC to grow in the presence of a patch that has been immersed in kanamycin (at a concentration of 50 μg/mL). The kanamycin resistant strain of EPEC was then immersed in a patch in a solution of Fe-QA.

[2] = system: H. pylori strain 17875; experiment: Binding of I-125 labelled Le^b to H. pylori (bound/free); design: species or system Helicobacter pylori; conditions: increasing Fe-QA concentration; pH 7.4
Description: Binding of Le^b to H. pylori strain 17875 at pH 7.4 was assayed by labeling Le^b with radioactive iodine (1-125), mixing the radioactive antigen with H. pylori bacteria, pelletizing the bacteria using a centrifuge, and measuring the radioactivity in the pellet and in the supernatant. Any Le^b that is bound to the bacteria is quantified by the measurement of radioactivity in the pellet. The ratio of the radioactivity in the pellet to the supernatant therefore corresponds to the ratio of Le^b bound by the bacteria to that which remains unbound, expressed as bound/free.

[3] = system: H. pylori CCUG 17875; experiment: H. pylori attachment to human gastric tissue sections (FITC-labelled bacteria); assay type: cell-based, Helicobacter pylori; conditions: Fe-QA 1 mM and 0.2 mM; 1 hour at room temperature
Description: The ability of H. pylori CCUG 17875 to bind to samples of human gastric tissue in the presence of Lewis b antigen, Le^b, and two concentrations of Fe-QA (1 mM and 0.2 mM) was measured. Binding was quantified by fluorescence using H. pylori that had been labeled with fluorescein using FITC (fluorescein isothiocyanate), and human gastric tissue that was embedded in […]. The bacteria were suspended in blocking buffer (1% BSA in PBS) and applied to re-hydrated histo-sections of human gastric tissue. Binding was assessed microscopically, and quantified as the average number of bacteria bound to the tissue.

[4] = Treatment of an acne patient; assay type: in vivo, human
Description: A patient was treated continuously for 30 days by applying a solution of ferric quinate (340 μM) to their acne vulgarism (“acne”) once each day. Within 5 days of the start of treatment, their acne, which had not previously responded to treatment with antibiotics, began to show signs of healing.

[5] = system: Enteropathogenic E. coli (EPEC) strain E2348/69; experiment: Growth curve of antibiotic resistant EPEC with gentamicin and Fe complex; assay type: cell-based, Escherichia coli; conditions: for rate of growth relative to gentamicin alone: gentamicin 1.25 μM and FeQ 10 to 100 μM
Description: The impact on the growth curve of antibiotic resistant Enteropathogenic E. coli (EPEC) strain E2348/69 (genotype Wild Type EPEC O17:H6) when grown in the presence of (i) gentamicin (1.25 μM), (ii) Fe-Tyr (100 μM), (iii) gentamicin (1.25 μM) and Fe-Tyr (1.25 μM), and (iv) a control with no gentamicin or Fe-Tyr present was determined.
(§1) The impact on the growth curve of antibiotic resistant Enteropathogenic E. coli (EPEC) strain E2348/69 (genotype Wild Type EPEC O17:H6) when grown in the presence of a fixed concentration of gentamicin (1.25 μM) and an increasing concentration of FeQ versus the strain grown in the presence of only FeQ or only gentamicin, was determined.
as §1, with “FeDOPA” for “FeQ”

[6] = system: Camyplobacter jejuni NCTC 11168; experiment: Motility on brain-heart infusion plate; assay type: cell-based, Campylobacter jejuni; conditions: FeQ 34 μM; 43 hours
Description: Camyplobacter jejuni NCTC 11168 was treated with FeQ (34 μM) and a plate containing brain-heart infusion (BHI) medium inoculated with […], 2×10^5 colony forming units of the treated bacteria and the plate was cultured for 43 hours. The growth and motility of the bacteria after treatment with FeQ was compared to a positive control where the bacteria had not been treated with FeQ, and also to a negative control where no bacteria were applied to a plate of the BHI medium. […] In contrast, Campylobacter jejuni that was not treated with FeQ was motile, and spread around the culture plate. There was no growth visible, as expected, on the plates that were not inoculated with bacteria.

[7] = system: Pseudomonas aeruginosa; experiment: Planktonic growth rate in RPMI-1640; assay type: cell-based; conditions: Fe-QA 100 μM
Description: The growth rate of Uropathogenic E. coli UPEC-536 in RPMI-1640 media over a period of 24 hours was compared to the growth rate of UPEC in RPMI-1640 media, but in the presence of 100 μM Fe-QA. The growth rate of Pseudomonas aeruginosa in RPMI-1640 media was also compared to the growth rate of Pseudomonas aeruginosa in RPMI-1640 media, but in the presence of 100 μM Fe-QA.

[8] = system: PAO-1 strains of Pseudomonas aeruginosa; experiment: Biofilm formation on contact lenses (ESEM); assay type: cell-based; conditions: FeQ 340 μM in LB; 37° C.; 24 hours
Description: To investigate biofilm formation on the contact lens, clinically determined PAO-1 strains of Pseudomonas aeruginosa were incubated with the lenses in either Luria-Bertani Media (LB) or LB with a final concentration of 340 μM FeQ at 37° C. for 24 hours in a non-shaking incubator. The lenses were then washed 6 times with PBS+0.05% Tween, before being stored overnight in PBS+0.05% Tween. In preparation for the ESEM, formaldehyde was added to a final concentration of 1% and incubated for 10 minutes in order to inactivate the bacteria. The lenses were then washed 4 times with PBS+0.05% Tween, and immediately before analysis the lenses were washed a further two times with distilled water.

SMILES: O=C1[O][Fe]23([O]C(=O)[C@]4(C[C@@H](O)[C@H](O)[C@H](O)C4)[O]2)([O]C(=O)[C@]2(C[C@@H](O)[C@H](O)[C@H](O)C2)[O]3)[O][C@@]12C[C@@H](O)[C@H](O)[C@H](O)C2 [FeQ, a complex of quinic acid with Fe III]
- rate of growth (growth curve) relative to kanamycin alone ([1]; kanamycin and Fe-QA): inhibited
- rate of growth (growth curve) ([1]; medium only containing Fe-QA): most rapid growth
- bacterial growth on plate around patch ([1]; patch immersed in Fe-QA alone): no impact on the growth; also recorded: no significant effect on bacterial growth
- bacterial growth on plate around patch ([1]; patch immersed in Fe-QA and kanamycin (50 μg/mL)): fail to grow
- competitive inhibition of Le^b binding to H. pylori (bound/free Le^b) [2]: increasingly inhibits binding
- binding of H. pylori to human gastric tissue [3]: significantly reduced
- state of acne after treatment for 30 days ([4]; ferric quinate solution 340 μM once each day): completely healed
- recurrence of acne after discontinuation of treatment for over one year ([4]; ferric quinate solution 340 μM once each day for 30 days): did not recur
- growth rate ([5]; FeQ alone, 10 μM to 100 μM): did not impact the growth rate
- rate of growth relative to gentamicin alone [5]: inhibited
- rate of growth relative to gentamicin alone ([5]; listed as Fe-QA): loses its resistance
- motility of bacteria on BHI plate [6]: not motile
- planktonic growth rate [7]: does not inhibit the growth
- biofilm formation on contact lens (ESEM) [8]: inhibits biofilm formation
